Laboratory results as given in US11155517B2, “4-substituted phenylamine derivatives and their use to protect crops by fighting undesired phytopathogenic micoorganisms” (PI INDUSTRIES LTD., priority 2016, dated 2021).

Experiments:
Format in all cases: cell-based
Pyricularia oryzae = assay: microbe, parasite or virus in culture; settings: 168 h, read-out: % control compared to the untreated check (radial growth)
Rhizoctonia solani = Rhizoctonia solani (rice sheath blight/potato black scurf) in vitro test, radial growth on Potato Dextrose Agar; settings: 168 h, 300 ppm, seven days, 25° C., read-out: % control compared to the untreated check (radial growth)
Botrytis cinerea = Botrytis cinerea (gray mold) in vitro test, radial growth on Potato Dextrose Agar; settings: 168 h, 300 ppm, seven days, 22° C., read-out: % (control) compared to the untreated check (radial growth)
Alternaria solani = Alternaria solani (early blight of tomato/potato) in vitro test, radial growth on Potato Dextrose Agar; settings: 168 h, 300 ppm, seven days, 25° C., read-out: % control compared to the untreated check (radial growth)
Colletotrichum capsici = Colletotrichum capsici (anthracnose) in vitro test, radial growth on Potato Dextrose Agar; settings: Colletotrichum truncatum, 168 h; 300 ppm; seven days, 25° C.; read-out: % control compared to the untreated check (radial growth)
Septoria lycopersici = Septoria lycopersici (leaf spot of tomato) in vitro test, radial growth on Potato Dextrose Agar; settings: 168 h, seven days, 25° C., read-out: % control compared to the untreated check (radial growth)
Fusarium culmorum = Fusarium culmorum (foot rot of cereals) in vitro test, radial growth on Potato Dextrose Agar; settings: Fusarium culmorum, 168 h, read-out: % control compared to the untreated check (radial growth)

SMILES | inhibition of growth at 300 ppm (Pyricularia oryzae) | inhibition of growth at 300 ppm (Rhizoctonia solani) | inhibition of growth at 300 ppm (Botrytis cinerea) | inhibition of growth at 300 ppm (Alternaria solani) | inhibition of growth at 300 ppm (Colletotrichum capsici) | inhibition of growth at 300 ppm (Septoria lycopersici) | inhibition of growth at 300 ppm (Fusarium culmorum)
CCN(C)C=Nc1cc(C)c(Cc2ccc(OC)cc2)cc1C [Compound 54, N-ethyl-N′-(4-(4-methoxybenzyl)-2,5-dimethylphenyl)-N-methylformimidamide] | > 75% | > 80% | > 80% | > 75% | > 80% | > 70% | 75%
CCN(C)C=Nc1cc(C(F)(F)F)c(Cc2ccccc2Cl)cc1C1CC1 [Compound 262, N′-(4-(2-chlorobenzyl)-2-cyclopropyl-5-(trifluoromethyl)phenyl)-N-ethyl-N-methylformimidamide] | > 75% | > 80% | > 80% | > 75% | > 80% | > 70% | 75%
CCN(C)C=Nc1cc(C)c(Cc2ccccc2C)cc1F [Compound 212, N-ethyl-N′-(2-fluoro-5-methyl-4-(2-methylbenzyl)phenyl)-N-methylformimidamide] | > 75% | > 80% | > 80% | > 75% | > 80% | > 70% | 75%
Cc1cc(N=CN2CCCCC2)c(C)cc1Cc1ccc(F)cc1 [Compound 60, N-(4-(4-fluorobenzyl)-2,5-dimethylphenyl)-1-(piperidin-1-yl)methanimine] | > 75% | > 80% | > 80% | > 75% | > 80% | > 70% | 75%
CCN(C)C=Nc1cc(C)c(Cc2cc(C(F)(F)F)ccc2Cl)cc1C [Compound 159, N′-(4-(2-chloro-5-(trifluoromethyl)benzyl)-2,5-dimethylphenyl)-N-ethyl-N-methylformimidamide] | > 75% | > 80% | > 80% | > 75% | > 80% | > 70% | 75%
CCN(C)C=Nc1cc(C)c(Cc2cccc([N+](=O)[O-])c2)cc1C [Compound 49, N′-(2,5-dimethyl-4-(3-nitrobenzyl)phenyl)-N-ethyl-N-methylformimidamide] | > 75% | > 80% | > 80% | > 75% | > 80% | > 70% | 75%
CCN(C)C=Nc1cc(C)c(/C(=N\C)c2ccccc2C)cc1C [Compound 215, N′-(2,5-dimethyl-4-((Z)-(methylimino)(o-tolyl)methyl)phenyl)-N-ethyl-N-methylformimidamide] | > 75% | > 80% | – | > 75% | > 80% | > 70% | 75%
CCN(C)C=Nc1cc(C)c(Cc2cccc(OC(F)(F)F)c2)cc1C1CC1 [Compound 224, N′-(2-cyclopropyl-5-methyl-4-(3-(trifluoromethoxy)benzyl)phenyl)-N-ethyl-N-methylformimidamide] | > 75% | > 80% | > 80% | > 75% | – | > 70% | 75%
Cc1cc(N=CN2CCOCC2)c(C)cc1Cc1ccc(F)cc1 [Compound 56, N-(4-(4-fluorobenzyl)-2,5-dimethylphenyl)-1-morpholinomethanimine] | > 75% | > 80% | > 80% | > 75% | – | > 70% | 75%
CCN(C)C=Nc1cc(C#N)c(Cc2cccc(F)c2)cc1C [Compound 250, N′-(5-cyano-4-(3-fluorobenzyl)-2-methylphenyl)-N-ethyl-N-methylformimidamide] | > 75% | > 80% | > 80% | > 75% | – | > 70% | 75%
CCN(C)C=Nc1ccc(Cc2ccccc2C)c2ccccc12 [Compound 271, N-ethyl-N-methyl-N′-(4-(2-methylbenzyl)naphthalen-1-yl)formimidamide] | > 75% | > 80% | > 80% | > 75% | – | > 70% | 75%
CCN(C)C=Nc1cc(C#N)c(Cc2ccc(C)cc2)cc1C [Compound 252, N′-(5-cyano-2-methyl-4-(4-methylbenzyl)phenyl)-N-ethyl-N-methylformimidamide] | > 75% | > 80% | > 80% | > 75% | – | > 70% | 75%
CCN(C)C=Nc1cc(Cl)c(Cc2cccc(C)c2)cc1C [Compound 260, N′-(5-chloro-2-methyl-4-(3-methylbenzyl)phenyl)-N-ethyl-N-methylformimidamide] | > 75% | – | > 80% | > 75% | > 80% | > 70% | 75%
CCN(C)C=Nc1cc(C)c(Cc2cccc(C#N)c2)cc1Cl [Compound 72, N′-(2-chloro-4-(3-cyanobenzyl)-5-methylphenyl)-N-ethyl-N-methylformimidamide] | > 75% | > 80% | – | > 75% | > 80% | > 70% | 75%
CCN(C)C=Nc1cc(C)c(Cc2cccc(N(C)C)c2)cc1C [Compound 111, N′-(4-(3-(dimethylamino)benzyl)-2,5-dimethylphenyl)-N-ethyl-N-methylformimidamide] | > 75% | > 80% | – | > 75% | > 80% | > 70% | 75%
CCN(C)C=Nc1cc(C)c(Cc2cc(C(F)(F)F)ccc2C)cc1C [Compound 53, N′-(2,5-dimethyl-4-(2-methyl-5-(trifluoromethyl)benzyl)phenyl)-N-ethyl-N-methylformimidamide] | – | – | > 80% | > 75% | > 80% | > 70% | 75%
Cc1cc(N=CN2CCOCC2)c(C)cc1Cc1ccccc1F [Compound 55, N-(4-(2-fluorobenzyl)-2,5-dimethylphenyl)-1-morpholinomethanimine] | > 75% | > 80% | > 80% | > 75% | – | > 70% | 75%
